According to patent publication US20110028566A1, “COMPOSITIONS AND PRODUCTS CONTAINING CYCLOALIPHATIC DIOL ANTIMICROBIAL AGENTS AND METHODS OF USING THE COMPOSITIONS AND PRODUCTS” (EASTMAN CHEMICAL COMPANY, priority 2009, published 2011):
Several values for one entry are separate records, joined by “and”; a condition that tells them apart may be missing. Equal values may be shown once.

Tests used:
[1] = system: Aspergillus niger ATCC 16404; test: MIC determination and synergy testing (Kull synergy index), microplate; format: cell-based
Description: The test cultures are listed in Table 7 along with the incubation temperatures used for growth and minimum inhibitory concentration (MIC) testing. […] C. albicans was cultured in Sabouraud dextrose broth (SDB) for approximately 44-52 hours for preparation of inoculum. A. niger was cultured on Sabouraud dextrose agar (SDA) for 3-4 days until there was confluent growth and visible spore formation. Spores were harvested from the SDA plates by flooding the surface of the plate with 5-10 mL of phosphate-buffered saline (PBS) and gently spreading the liquid across the surface of the plate with a sterile T-shaped plastic spreader (Copan Diagnostics) until there was a well-mixed suspension of spores. The resulting spore suspension was collected using a serological pipette and stored at 2-8° C. until use.
Inoculum concentration was determined by dilution plating of the cultures or spore suspension. A serial dilution in PBS was made to 10^−8 for the bacterial cultures or 10^−5 for the fungal cultures. Fifty or 100 μL of the final dilution was spread on two Trypticase-soy agar (TSA) plates for bacteria or two SDA plates for fungi. After 24 to 48 hours plates were counted and the concentrations used in each experiment were calculated.
The A. niger spore suspensions were concentrated to a level of 1-2×10^8 spores/mL by centrifugation and resuspension in a portion of the resulting supernatant.
The antimicrobial agents tested for synergy along with the respective diluents and working stock solution concentrations are shown below. For determination of MIC ranges, individual antimicrobial agent stock solutions were added to sterile medium to yield the highest level test concentrations, and then serially diluted in the medium to prepare the range of test concentrations. For synergy testing individual test concentrations were prepared in sterile medium, and then blended to form the desired combinations.
(§1) MICs were determined using a high-throughput microplate method. Individual antimicrobial agents were added to TSB (pH 7.3) for bacterial testing or SDB (pH 5.6) for fungal testing at the highest concentration to be tested. A serial dilution series was prepared at a dilution ratio of 1:1.3333 such that a one log range was covered in nine dilutions. Two-hundred microliters of the diluted antimicrobial agents were dispensed into four wells each of a sterile, 96-well, flat-bottom microplate (Nalge Nunc International). Four additional wells of the highest concentration were dispensed to serve as uninoculated high-level controls. Eight additional wells containing only broth medium were also prepared, four to serve as negative controls and four as positive controls. Three wells of each antimicrobial agent dilution were inoculated with one of the test strains in Table 7. The final well of each antimicrobial agent dilution was left uninoculated to serve as a control (and means of compensating) for any absorbance/turbidity due to the test compounds.
Microplates were inoculated using the cultures or spore suspensions prepared as described above. The S. aureus cultures were used undiluted, while the E. coli and P. aeruginosa cultures were used either undiluted or after a 1:2 dilution in sterile TSB. The C. albicans cultures were used either undiluted or following a 2-fold concentration by centrifugation. One of two means of inoculation was used to deliver a final concentration of approximately 10^5 colony-forming units (CFU)/mL of C. albicans, 10^5 spores/mL of A. niger, or 10^6 CFU/mL of bacteria. The primary method used a stainless steel pin replicator (Nalge Nunc International) mounted on a hand-operated bench-top press (Schmidt Technology Corporation) fitted with a custom-built microplate holder to dispense one microliter of each inoculum from a “master” plate containing 50-100 μL of culture into the wells of the test plate. The pin replicator was sterilized before and between inoculations by immersing in ethanol and flaming. […]

[2] = system: Corynebacterium xerosis ATCC #373; test: Synergy testing in brain heart infusion media, 96-well plates; format: cell-based; settings: for % CHDM: relative to CHDM alone; for SI: synergy index
Description: as §1
The individual antimicrobial agents listed in Table 8 were tested in combination with CHDM. The MIC values determined in the individual antimicrobial agent testing described above were used to establish a target MIC. In each experiment, MIC values for the individual antimicrobial agents and CHDM were determined in order to eliminate any variability due to comparison of data from different dates. Testing was done over a range of four concentrations separated by a factor of 1.3333 as described above. The four concentrations were the target MIC plus one dilution level higher and two dilution levels lower than the target. Combinations of antimicrobial agents and CHDM were made at 50% of the target MIC values and the higher and lower individual levels. Additionally, 50% level series were also tested with the antimicrobial agent or CHDM at one dilution level lower than the target level. The method of Kull et. al. (F. C. Kull et al., Applied Microbiology, 9, p 538-541 (1961)) was used to determine whether there was synergistic activity between CHDM and each antimicrobial agent for inhibition of each of the five microbes. MICs for the individually-tested CHDM and antimicrobial agent, as well as the concentration of CHDM and antimicrobial agent in the combination MIC were used to calculate a synergy index (SI) according to the equation: […]
where Qa and Qb are the minimum inhibitory concentrations for CHDM and a antimicrobial agent, respectively, when tested independently, and QA and QB are the concentrations of CHDM and a antimicrobial agent, respectively, in combination at an inhibitory concentration. Accordingly, synergy is defined as a SI less than one.
Experiments were also conducted using Corynebacterium xerosis, which is a bacterium known to cause body odor. […] The Corynebacterium xerosis bacterium used in this example was ATCC #373. The seed culture was grown in brain heart infusion medium. Assays were performed in brain heart infusion media in 96-well plates as described in Example 2. The brain heart infusion medium was at a pH of about 7.4. All growth was conducted at 37° C.

[3] = A. niger, plate 154C, day 3, MP and CHDM

**Q.** For `OCC1CCC(CO)CC1` (stereo not drawn) [1,4-CHDM, 1,4-cyclohexanedimethanol], which “QA, MIC of CHDM alone” value ([1]; A. niger, day 2 of incubation, plates 123C, 217C (CG series)) is on record?
**A.** 4.50 weight percent and 3.11 weight percent

**Q.** And the “QA, MIC of CHDM alone” value ([1]; A. niger, day 3 of incubation, plate 123C (CG series))?
**A.** 3.11 weight percent

**Q.** And the “QA/a: concentration of CHDM (MIC alone, or in the combination at an inhibitory concentration)” value [1, 3]?
**A.** 2.03 weight percent

**Q.** What about the “SI (synergy index)” value [1, 3] of the same compound?
**A.** 1.00

**Q.** What about the QA/a ([1]; CHDM alone (QA) or in combination with DMDM hydantoin (a), plate 196C, day 3) of the same compound?
**A.** 2.78

**Q.** What about the QA/a ([1]; CHDM alone (QA) or in combination with IPBC (a), plate 259C, day 2) of the same compound?
**A.** 5.00

**Q.** What about the QA/a ([1]; CHDM alone (QA) or in combination with IPBC (a), plate 260C, day 3) of the same compound?
**A.** 6.50

**Q.** What about the QA/a ([1]; CHDM: MIC alone (QA) or conc. in combination with BA:DHA (a), plate 195C, day 2) of the same compound?
**A.** 4.93

**Q.** What about the QA/a ([1]; CHDM: MIC alone (QA) or conc. in combination with BA:DHA (a), plate 195C, day 3) of the same compound?
**A.** 4.93

**Q.** What about the QA/a ([1]; CHDM: MIC alone (QA) or conc. in combination with BA:DHA (a), plate 215C, day 2) of the same compound?
**A.** 4.50

**Q.** What about the QA/a ([1]; CHDM: MIC alone (QA) or conc. in combination with BA:DHA (a), plate 215C, day 3) of the same compound?
**A.** 4.50

**Q.** What about the QA/a ([1]; CHDM: MIC alone (QA) or conc. in combination with CP (a), plate 194C, day 2) of the same compound?
**A.** 3.70

**Q.** And the QA/a ([1]; CHDM: MIC alone (QA) or conc. in combination with CP (a), plate 194C, day 3)?
**A.** 2.78

**Q.** What about the QA/a ([1]; CHDM: MIC alone (QA) or conc. in combination with MIT (a), plate 193C, day 2) of the same compound?
**A.** 4.93

**Q.** And the QA/a ([1]; CHDM: MIC alone (QA) or conc. in combination with MIT (a), plate 193C, day 3)?
**A.** 2.78

**Q.** And the QA/a ([1]; CHDM: MIC alone (QA) or conc. in combination with MIT (a), plate 214C, day 2)?
**A.** 4.50

**Q.** And the QA/a ([1]; CHDM: MIC alone (QA) or conc. in combination with MIT (a), plate 214C, day 3)?
**A.** 6.00

**Q.** What about the “% CHDM” value ([2]; Day 2, CHDM with EHG) of the same compound?
**A.** 100.0%

**Q.** What about the “% CHDM” value ([2]; Day 2, CHDM with TRI) of the same compound?
**A.** 100.0%

**Q.** And the “QA/a (CHDM)” value ([2]; Day 2, inhibitory concentration of CHDM alone or in combination with EHG, plate EX194-195-EHG-Syn1)?
**A.** 2.110

**Q.** And the “QA/a (CHDM)” value ([2]; Day 2, inhibitory concentration of CHDM alone or in combination with TRI, plate EX194-195-TRI-Syn1)?
**A.** 2.110

**Q.** What about the SI ([2]; Day 2, CHDM with EHG) of the same compound?
**A.** 1.00

**Q.** What about the SI ([2]; Day 2, CHDM with TRI) of the same compound?
**A.** 1.00

**Q.** What about the “% CHDM” value ([2]; Day 3, CHDM with EHG) of the same compound?
**A.** 100.0%

**Q.** And the “% CHDM” value ([2]; Day 3, CHDM with TRI)?
**A.** 100.0%

**Q.** What about the “QA/a (CHDM)” value ([2]; Day 3, inhibitory concentration of CHDM alone or in combination with EHG, plate EX194-195-EHG-Syn1) of the same compound?
**A.** 2.110

**Q.** And the “QA/a (CHDM)” value ([2]; Day 3, inhibitory concentration of CHDM alone or in combination with TRI, plate EX194-195-TRI-Syn1)?
**A.** 2.110

**Q.** What about the SI ([2]; Day 3, CHDM with EHG) of the same compound?
**A.** 1.00

**Q.** And the SI ([2]; Day 3, CHDM with TRI)?
**A.** 1.00

**Q.** Which “Synergism of antimicrobial agent in combination with 1,4-CHDM for A. niger (in words; in the 12th table the cell names the organism and table number)” value ([1]; Kull synergy index, synergistic when at least two results SI<1) does the source give for `CCCCCCC(O)CO` (stereo not drawn) [CG, 1,2-octanediol] here?
**A.** A. niger (14)
